Data set [1] is described as follows: Solubility of iniparib in purified water. The format is physicochemical.
For data set [2], the target named is poly [ADP-ribose] polymerase 1 (PARP1) (Homo sapiens, UniProt P09874). The settings on record: observed in several studies; cited from earlier work.
The conditions of data set [3]: tissues including brain and cerebrospinal fluid (CSF); cited from earlier work.
Data set [4] deals with cancer cells, including drug resistant cell lines. Conditions: cited from earlier work.

In brackets after ≈: the same amount, converted by molar mass.

Sequence of poly [ADP-ribose] polymerase 1 (PARP1) (P09874 whole entry, species assumed): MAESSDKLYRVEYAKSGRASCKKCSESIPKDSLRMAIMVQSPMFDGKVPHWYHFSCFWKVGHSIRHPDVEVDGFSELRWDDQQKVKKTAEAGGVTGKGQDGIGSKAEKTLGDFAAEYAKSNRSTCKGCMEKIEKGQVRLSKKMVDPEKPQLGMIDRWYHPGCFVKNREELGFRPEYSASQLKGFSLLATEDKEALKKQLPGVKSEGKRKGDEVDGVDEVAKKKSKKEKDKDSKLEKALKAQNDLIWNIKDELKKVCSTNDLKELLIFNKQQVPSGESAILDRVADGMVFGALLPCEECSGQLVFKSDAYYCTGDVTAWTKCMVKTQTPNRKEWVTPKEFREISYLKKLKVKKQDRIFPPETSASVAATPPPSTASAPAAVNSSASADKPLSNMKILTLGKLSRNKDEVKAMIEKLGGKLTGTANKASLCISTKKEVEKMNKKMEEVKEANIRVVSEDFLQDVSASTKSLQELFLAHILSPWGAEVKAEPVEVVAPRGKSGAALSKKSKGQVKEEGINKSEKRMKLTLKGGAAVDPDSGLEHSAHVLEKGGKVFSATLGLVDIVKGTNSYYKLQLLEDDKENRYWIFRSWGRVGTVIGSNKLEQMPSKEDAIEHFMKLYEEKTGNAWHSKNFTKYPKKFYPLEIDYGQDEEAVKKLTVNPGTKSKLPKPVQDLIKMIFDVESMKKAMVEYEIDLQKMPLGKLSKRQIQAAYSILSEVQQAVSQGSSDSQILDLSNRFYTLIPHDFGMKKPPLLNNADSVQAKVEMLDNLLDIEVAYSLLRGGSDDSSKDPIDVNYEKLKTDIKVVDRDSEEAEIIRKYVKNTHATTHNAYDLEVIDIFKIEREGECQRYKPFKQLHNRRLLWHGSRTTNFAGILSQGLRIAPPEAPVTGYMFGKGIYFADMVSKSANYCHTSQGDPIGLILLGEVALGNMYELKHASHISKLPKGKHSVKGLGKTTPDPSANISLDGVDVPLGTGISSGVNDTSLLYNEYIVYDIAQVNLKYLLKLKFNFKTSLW

Turning to `NC(=O)c1ccc(I)c([N+](=O)[O-])c1` [Iniparib, 4-iodo-3-nitrobenzamide], the solubility – broadly, how much of the substance goes into solution per volume – in data set [1] is about 182 µg/mL (≈ 623 µM). Further, the “potency against PARP1” value in data set [2] is “low potency”. Besides, the distribution into tissues entry in data set [3] was “distributes rapidly and widely into tissues, including the brain and cerebrospinal fluid (CSF)”. Besides, the “activity against cancer cells in vitro” value in data set [4] is on record as “active against a broad range of cancer cells in vitro”.
